Results reported in patent publication US20250066419A1 (priority 2021, published 2025).

Substance: FITC-linker-YGRRARRRRRRIYSIKDTKLGN-biotin [CTP-SEB2]
- penetration of peptide into MoDCs (MoDCs): penetrated MoDCs much more
- peptide permeability in DCs (peptide-FITC in CD11c+ CD80+ population) (dendritic cells): permeated a large amount of peptide
- permeability effect (degree of fluorescent labeling of cells) (BMDCs): permeability effect is greater
